From the supplement of paper PMC10307832

Legend:
Assay in all cases: relative viability (nuclei count vs DMSO), 5 days (fraction); higher = more cells survive
Pictilisib + Tozasertib = compound: CS(=O)(=O)N1CCN(Cc2cc3nc(-c4cccc5[nH]ncc45)nc(N4CCOCC4)c3s2)CC1 [Pictilisib] + Cc1cc(Nc2cc(N3CCN(C)CC3)nc(Sc3ccc(NC(=O)C4CC4)cc3)n2)n[nH]1 [Tozasertib] (partner 0.1 µM)
Procedure, shortened: (§1)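 Values are medians from duplicate plates. Each reflects relative viability, defined as the nuclei count of treated wells over that of vehicle wells. Lung cancer cell lines in 1536-well plates were pin-tool dosed one day after seeding with one drug alone or with a fixed anchor-drug dose plus five library-drug doses (not always all listed) in √10 steps, then fixed, stained and imaged at 4× after 5 days.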

MK-2206 + Vorinostat = compound: NC1(c2ccc(-c3nc4ccn5c(=O)[nH]nc5c4cc3-c3ccccc3)cc2)CCC1 [MK-2206] + O=C(CCCCCCC(=O)Nc1ccccc1)NO [Vorinostat] (partner 1 µM)
Procedure, shortened: as §1

MK-2206 + Linsitinib = compound: NC1(c2ccc(-c3nc4ccn5c(=O)[nH]nc5c4cc3-c3ccccc3)cc2)CCC1 [MK-2206] + C[C@]1(O)C[C@@H](c2nc(-c3ccc4ccc(-c5ccccc5)nc4c3)c3c(N)nccn32)C1 [Linsitinib] (partner 1 µM)
Procedure, shortened: as §1

Pictilisib + Phenformin = compound: CS(=O)(=O)N1CCN(Cc2cc3nc(-c4cccc5[nH]ncc45)nc(N4CCOCC4)c3s2)CC1 [Pictilisib] + N=C(N)NC(=N)NCCc1ccccc1 [Phenformin] (partner 250 µM)
Procedure, shortened: as §1

Pictilisib + Bortezomib = compound: CS(=O)(=O)N1CCN(Cc2cc3nc(-c4cccc5[nH]ncc45)nc(N4CCOCC4)c3s2)CC1 [Pictilisib] + CC(C)C[C@H](NC(=O)[C@H](Cc1ccccc1)NC(=O)c1cnccn1)B(O)O [Bortezomib] (partner 0.002 µM)
Procedure, shortened: as §1

Row | Cell Line | relative viability (Pictilisib + Tozasertib; first compound 0.02 µM) | relative viability (Pictilisib + Tozasertib; first compound 0.06325 µM) | relative viability (Pictilisib + Tozasertib; first compound 0.6325 µM) | relative viability (Pictilisib + Tozasertib; first compound 2 µM) | relative viability (MK-2206 + Vorinostat; first compound 0.01 µM) | relative viability (MK-2206 + Vorinostat; first compound 0.03162 µM) | relative viability (MK-2206 + Vorinostat; first compound 0.3162 µM) | relative viability (MK-2206 + Vorinostat; first compound 1 µM) | relative viability (MK-2206 + Linsitinib; first compound 0.01 µM) | relative viability (MK-2206 + Linsitinib; first compound 0.03162 µM) | relative viability (MK-2206 + Linsitinib; first compound 0.3162 µM) | relative viability (MK-2206 + Linsitinib; first compound 1 µM) | relative viability (Pictilisib + Phenformin; first compound 0.02 µM) | relative viability (Pictilisib + Phenformin; first compound 0.06325 µM) | relative viability (Pictilisib + Phenformin; first compound 0.6325 µM) | relative viability (Pictilisib + Phenformin; first compound 2 µM) | relative viability (Pictilisib + Bortezomib; first compound 0.02 µM) | relative viability (Pictilisib + Bortezomib; first compound 0.06325 µM) | relative viability (Pictilisib + Bortezomib; first compound 0.6325 µM) | relative viability (Pictilisib + Bortezomib; first compound 2 µM)
1 | HCC-78 | 0.427 | 0.46 | 0.309 | 0.281 | 0.439 | 0.504 | 0.408 | 0.398 | 0.505 | 0.576 | 0.388 | 0.316 | 0.587 | 0.705 | 0.427 | 0.312 | 0.458 | 0.384 | 0.294 | 0.2
2 | HCC-366 | 0.19 | 0.0882 | 0.0364 | 0.0156 | 0.341 | 0.448 | 0.26 | 0.254 | 0.637 | 0.675 | 0.364 | 0.384 | 0.631 | 0.702 | 0.269 | 0.129 | 1.08 | 1.01 | 0.691 | 0.189
3 | HCC-827 | 0.436 | 0.441 | 0.312 | 0.2 | 0.791 | 0.847 | 0.816 | 0.323 | 1.01 | 0.989 | 0.982 | 0.914 | 0.423 | 0.419 | 0.376 | 0.306 | 1.03 | 1.03 | 1.14 | 1.03
4 | HOP-62 | 0.319 | 0.415 | 0.369 | 0.304 | 0.491 | 0.632 | 0.492 | 0.656 | 0.783 | 0.757 | 1.01 | 0.998 | 0.681 | 0.701 | 0.717 | 0.598 | 1.15 | 0.986 | 0.693 | 0.652
5 | IA-LM |  |  |  |  | 0.935 | 1.11 | 1.02 | 1.02 | 0.55 | 0.632 | 0.597 | 0.409 |  |  |  |  | 0.791 | 0.721 | 0.732 | 0.308
6 | LK-2 | 0.209 | 0.173 | 0.154 | 0.158 | 0.26 | 0.287 | 0.334 | 0.221 | 0.511 | 0.641 | 0.627 | 0.699 | 0.468 | 0.379 | 0.176 | 0.143 |  |  |  | 
7 | NCI-H358 | 0.0959 | 0.104 | 0.103 | 0.0838 | 0.659 | 0.697 | 0.646 | 0.729 | 0.79 | 0.707 | 0.542 | 0.602 | 0.348 | 0.38 | 0.207 | 0.151 |  |  |  | 
8 | NCI-H522 | 0.52 | 0.542 | 0.444 | 0.397 | 1.07 | 1.02 | 0.828 | 0.836 |  |  |  |  | 0.749 | 0.676 | 0.613 | 0.603 |  |  |  | 
9 | NCI-H1299 |  |  |  |  |  |  |  |  | 0.947 | 1.08 | 0.977 | 0.965 |  |  |  |  | 1.02 | 1.04 | 1.07 | 1.05
10 | NCI-H1395 | 0.715 | 0.722 | 0.773 | 0.473 | 0.713 | 0.667 | 0.574 | 0.576 | 1.22 | 1.03 | 0.915 | 1.23 | 0.453 | 0.425 | 0.386 | 0.399 |  |  |  | 
11 | NCI-H1563 |  |  |  |  |  |  |  |  | 1.12 | 1.22 | 0.797 | 0.742 | 0.663 | 0.692 | 0.56 | 0.501 | 0.992 | 0.839 | 0.605 | 0.554
12 | NCI-H1623 | 0.378 | 0.364 | 0.381 | 0.272 |  |  |  |  |  |  |  |  | 0.646 | 0.61 | 0.54 | 0.274 |  |  |  | 
13 | NCI-H1648 | 0.377 | 0.36 | 0.455 | 0.246 | 0.475 | 0.422 | 0.445 | 0.432 |  |  |  |  |  |  |  |  |  |  |  | 
14 | NCI-H1650 | 0.467 | 0.401 | 0.348 | 0.18 | 0.532 | 0.612 | 0.656 | 0.519 |  |  |  |  | 0.492 | 0.318 | 0.247 | 0.176 | 0.199 | 0.205 | 0.207 | 0.172
15 | NCI-H1703 |  |  |  |  |  |  |  |  | 1.01 | 1.03 | 0.544 | 0.748 |  |  |  |  | 0.327 | 0.235 | 0.19 | 0.13
16 | NCI-H1792 |  |  |  |  |  |  |  |  | 0.573 | 0.596 | 0.549 | 0.636 | 0.343 | 0.257 | 0.128 | 0.124 | 0.986 | 0.962 | 0.835 | 0.418
17 | NCI-H1793 | 0.288 | 0.29 | 0.189 | 0.097 | 0.818 | 0.773 | 0.636 | 0.478 | 0.81 | 0.886 | 0.641 | 0.675 | 0.387 | 0.38 | 0.221 | 0.203 |  |  |  | 
18 | NCI-H1944 | 0.254 | 0.234 | 0.195 | 0.148 | 0.536 | 0.547 | 0.556 | 0.433 | 1.27 | 1.17 | 1.15 | 1.17 | 0.206 | 0.184 | 0.137 | 0.141 |  |  |  | 
19 | NCI-H2170 | 0.875 | 0.823 | 0.61 | 0.391 | 0.829 | 0.847 | 0.769 | 0.699 |  |  |  |  | 0.394 | 0.444 | 0.424 | 0.365 |  |  |  | 
20 | NCI-H2342 | 0.46 | 0.474 | 0.409 | 0.276 | 0.841 | 0.802 | 0.821 | 0.733 |  |  |  |  | 0.581 | 0.586 | 0.472 | 0.355 |  |  |  | 
21 | SK-MES-1 | 1 | 0.982 | 0.822 | 0.649 | 1.02 | 1.15 | 1.02 | 1.05 | 1.03 | 1.1 | 1.05 | 1.06 | 0.692 | 0.686 | 0.621 | 0.558 |  |  |  | 
22 | SW 900 | 0.651 | 0.63 | 0.562 | 0.334 | 0.527 |  | 0.554 | 0.299 |  |  |  |  | 0.617 | 0.554 | 0.417 | 0.191 |  |  |  | 
